Measured values from patent US20080254490A1, “Salivary Protease Assays for Identifying Increased Risk of Preterm Delivery Induced by Premature Rupture of Fetal Membranes” (priority 2005, published 2008).

Experiments:
[1] = tested on: metalloproteinase activity in human saliva samples; test: Proteinase activity assay in saliva with DQ-gelatin (fluorometry); assay type: biochemical; settings: compared with BB-94
Experimental: Proteinase activity assay: Total proteolytic activity in saliva samples was measured by fluorometry using the generic substrate DQ-gelatin (Molecular Probes Inc). An aliquot (usually 50 μl per 160 μl total assay volume) of each sample was mixed with substrate (10 μg/ml) in tricine buffer (50 mM Tricine, pH 7.4; 200 mM NaCl; 10 mM CaCl2; 0.05 mM ZnSO4; 0.005% Brij 35) and incubated at 37° C. An inhibitor cocktail comprising of inhibitors of serine, cysteine and aspartyl proteinases (‘Complete—EDTA free’, Roche Biochemicals, San Diego, Calif.) was included in the reactions for all the human saliva samples. Fluorometric measurements (excitation at 485 nm and emission at 538 nm) recorded every 10-20 minutes for 2 hours. These values were used to calculate an initial rate of enzyme activity (Fluorescence units/minute) which, for the murine samples, was then normalized for amylase concentration. To measure non-metalloproteinase activity, EDTA at a concentration of 30 mM was included in the assay mixture. Metalloproteinase (MP) activity was then determined as total less the EDTA-inhibited activity. Similarly, matrix metalloproteinase (MMP) activity, defined as the BB-94-inhibitible activity, was determined by subtracting the activity in the presence of BB-94 (25 μM) from total proteinase activity. […]

[2] = tested on: MMP9 specific bands (gelatinolytic activity) in saliva; settings: control gels treated with EDTA
Experimental: Zymography: 20 μl of each saliva sample was mixed with 5 μl of a sample buffer containing 250 mM Tris pH 6.8, 25% glycerol, 10% (w/v) SDS, 0.01% bromophenol blue and loaded onto 10% SDS-PAGE gels containing 0.25% porcine gelatin (Sigma). Molecular weight markers (Biowhittaker Molecular Applications, Rockland, Me., USA) and a positive control sample of conditioned medium from the human fibrosarcoma cell line HT-1080 were also included on the gel. Following electrophoresis, the gels were washed twice for 15 mins each in 2.5% Triton X-100 and then incubated overnight at 37° C. in a substrate buffer containing 50 mM Tris-HCl, pH 7.6 and 10 mM CaCl2 in the absence or presence of proteinase inhibitors EDTA (30 mM), BB-94 (20 μM), BMS-275291 (20 μM) or B428 (20 μM). Following incubation, the gels were stained with a solution of 0.5% (w/v) Coomassie Blue R250 prepared in 50% methanol: 10% acetic acid. Once stained, the gels were briefly de-stained in the same solution without the Coomassie Blue and then stored in distilled water. Areas of gelatinolytic activity appeared cleared against the blue background of the coomassie-stained undigested gelatin.

[3] = tested on: sheddases, proteinases of the ADAM family; settings: cited from earlier work

SMILES: CNC(=O)[C@@H](NC(=O)[C@H](CC(C)C)NC(=O)[C@@H](S)CCN1C(=O)N(C)C(C)(C)C1=O)C(C)(C)C [BMS-275291]
- inhibition of salivary metalloproteinase activity (DQ-gelatin cleavage) [1]: results comparable to those with BB-94

SMILES: O=C(O)CN(CCN(CC(=O)O)CC(=O)O)CC(=O)O [EDTA]
- gelatinolytic bands on zymography gels [2]: showed no bands

SMILES: CNC(=O)[C@H](Cc1ccccc1)NC(=O)[C@H](CC(C)C)[C@H](CSc1cccs1)C(=O)NO [BB-94]
- activity against sheddases [3]: activity against sheddases
